Reference: patent US4338433A, “Moranoline derivatives and process for preparation thereof” (Nippon Shinyaku Co. Ltd., priority 1979, dated 1982)

Columns and labels:
[1] = system: blood sugar levels; assay: Effect of controlling increase of blood sugar levels in sucrose-loaded rats; format: in vivo, rats of the SD series; conditions: Rattus norvegicus, po, 3 h; 2 g/Kg sucrose and 5 mg/Kg test compound orally; ΔAUC over 180 minutes; male SD rats; read-out: Blood Level Increase Inhibition Ratio (%)
Method: [Effect of Controlling Increase of Blood Sugar Levels]
Five-week-old male rats of the SD series are divided into groups, each consisting of 4 rats, and 2 g/Kg of sucrose and 5 mg/Kg of the test compound are orally administered. Blood is collected from the tail veins at predetermined intervals over a period of 180 minutes from the point of administration and the blood level values are measured. The area (ΔAUC) below the time-blood level increase curve is determined. The blood level increase inhibition ratio of the test compound is calculated from the basal value obtained in the group to which water alone has been administered and the control value obtained in the group to which sucrose alone has been administered according to the following formula: [formula]

[2] = molecular target: T1, α-1,4-glucanglucohydrolase (glucoamylase) (Rhizopus arrhizus, UniProt P07683); assay: Inhibition of α-1,4-glucanglucohydrolase (glucoamylase), soluble starch substrate; format: biochemical; conditions: read-out: percent inhibition at parenthesized concentration; for inhibition at 200 µg/mL: at 200 μg/ml (printed >200 μg/ml)
T1 sequence (P07683 26-604): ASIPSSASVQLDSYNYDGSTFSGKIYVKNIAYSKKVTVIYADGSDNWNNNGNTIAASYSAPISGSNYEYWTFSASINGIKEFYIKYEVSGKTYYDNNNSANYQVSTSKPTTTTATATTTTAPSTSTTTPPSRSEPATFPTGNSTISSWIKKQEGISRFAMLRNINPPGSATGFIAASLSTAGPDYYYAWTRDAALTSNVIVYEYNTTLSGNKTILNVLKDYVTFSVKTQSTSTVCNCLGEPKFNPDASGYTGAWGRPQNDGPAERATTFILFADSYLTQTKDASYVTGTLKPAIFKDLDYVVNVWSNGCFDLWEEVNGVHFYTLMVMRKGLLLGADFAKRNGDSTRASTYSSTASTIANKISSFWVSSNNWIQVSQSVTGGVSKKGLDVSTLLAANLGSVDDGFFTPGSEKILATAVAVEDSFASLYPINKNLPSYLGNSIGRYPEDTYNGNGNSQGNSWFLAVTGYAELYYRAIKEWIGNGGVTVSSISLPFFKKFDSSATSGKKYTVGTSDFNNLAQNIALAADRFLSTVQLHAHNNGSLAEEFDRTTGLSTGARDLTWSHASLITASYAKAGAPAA
Method: Moranoline, N-lower-alkylmoranolines, oligoglycosylmoranolines and N-lower-alkyloligoglucosylmoranolines inhibit the activity of α-1,4-glucanglucohydrolase. The inhibition is determined according to the following method.
Glucoamylase (crystal) derived from Rhizopus nivens (supplied by Seikagaku Kogyo K. K.) is dissolved in distilled water so that the concentration is 50 μg/ml and the enzyme is used in the form of the so obtained solution.
Soluble starch is dissolved in a buffer solution at a high temperature so that the concentration is 1.4%, and the solution is cooled to room temperature and used.
0.1 M phosphate buffer solution (pH=5.7)
The starting liquid is incubated at 40° C. for 10 minutes, and 1 ml of a 0.3 N solution of Ba(OH)2 and 1 ml of a 5% solution of ZnSO4 are added. Centifugal separation is conducted under a load of 2000×g for 10 minutes, and 30 μl of the supernatant is sampled and 3 ml of a glucose color reagent (supplied by Boelunger Mannheim Co.; new blood sugar test) was added to the supernatant. The mixture was allowed to stand at room temperature for 35 minutes and the absorbance at 420 nm is measured. The percent inhibition is calculated according to the following formula: [formula] wherein C stands for the absorbance of the control, T stands for the absorbance of the test sample, B' stands for the absorbance of the blank (I), and B stands for the absorbance of the blank (II).
The percent inhibition is also determined in respect of dilutions, and the concentration (IC50) providing 50% inhibition is found. In Table 4, the percent inhibition obtained at a parenthesized concentration is shown when the inhibition is low.

[3] = molecular target: T2, α-1,4-glucanglucohydrolase (Rhizopus arrhizus, UniProt P07683); assay: Decomposition of the substance by α-1,4-glucanglucohydrolase (glucose release); format: biochemical
T2 sequence (P07683 26-604): T1 sequence (P07683 26-604)
Description: Practically, reactions of the respective stages are advanced on a mixture of compounds differing in the glucose number (m). Accordingly, in order to accumulate intended G-MR in the liquid reaction mixture, it is indispensable that rate constants should be sufficiently high but the rate constant k1 should be sufficiently low. FIG. 4 clarifies this point. FIG. 4 will now be explained. A predetermined amount of N-methyloligoglycosylmoranoline is adsorbed on 1 g of Dowex 50W×2 (H^+) in an Erlenmeyer flask having a capacity of 125 ml, and they are suspended in 50 ml of distilled water and 10 mg of α-1,4-glucanglucohydrolase is added to the suspension. Incubation is carried out at 40° C., and 500 μl of the liquid is sampled at predetermined intervals and the amount of glucose is determined. When maltose is used as the substrate, it is mixed with 1 g of Dowex 50W×2 (H^+) and in this state, incubation is carried out at 40° C.
1 ml of 0.3 N Ba(OH)2 and 1 ml of 5% ZnSO4 are added to 500 μl of the reaction mixture liquid and centifugal separation is carried out under a load of 2000 g for 10 minutes. 30 μl of the supernatant is taken and 3 ml of a commercially available glucose color reagent (manufactured by Boehunger Mannheim Co.; new blood sugar test) is added to the sampled supernatant. The mixture is sufficiently stirred and allowed to stand at room temperature for 35 minutes and the absorbance at 420 nm is measured. Separately, a glucose reference reagent (9.1 mg/dl) is similarly treated and the absorbance at 420 nm is measured. Based on these measurements, the amount of glucose formed in the reaction mixture liquid is determined.
About 22 units/mg of α-1,4-glucanglucohydrolase (crystal) derived from Rhizopus niveus (supplied by Seikagaku Kogyo K.K.)
The reaction time is plotted on the abscissa and the ratio of decomposition based on complete decomposition of glucose is plotted on the ordinate. […] After determination of the amount of glucose, the reaction liquid is filtered and the ion exchange resin (Dowex 50W×2) is collected, washed with water sufficiently and eluted with 0.5 N aqueous ammonia. The eluate is concentrated under reduced pressure and dried to the solid. The solid is dissolved in distilled water and subjected to high speed liquid chromatography (Model ALC/GPC-244 supplied by Waters Co., μ-Bondapak NH2 column, acetonitrile/water=70/30, 1.5 cc/min), and the reaction product is identified by a chromatopac Model C-R1A supplied by Shimadzu Seisakusho K. K. The ratios of formation of N-methylmoranoline are […] in case of 4-(α-D-glucosyl)-N-methylmoranoline, 4-(α-D-amltosyl)-N-methylmoranoline, 4-(α-D-maltotriosyl)-N-methylmoranoline and 4-(α-D-maltotetraosyl)-N-methylmoranoline, respectively. […]

OC[C@H]1NC[C@H](O)[C@@H](O)[C@@H]1O[C@H]1O[C@H](CO)[C@@H](O[C@H]2O[C@H](CO)[C@@H](O[C@H]3O[C@H](CO)[C@@H](O[C@H]4O[C@H](CO)[C@@H](O)[C@H](O)[C@H]4O)[C@H](O)[C@H]3O)[C@H](O)[C@H]2O)[C@H](O)[C@H]1O [4-(α-D-maltotetraosyl)-moranoline]
inhibition in vivo at 5 mg/kg [1]: 56%
inhibition at 200 µg/mL [2]: 0%

CN1C[C@H](O)[C@@H](O)[C@H](O[C@H]2O[C@H](CO)[C@@H](O[C@H]3O[C@H](CO)[C@@H](O[C@H]4O[C@H](CO)[C@@H](O[C@H]5O[C@H](CO)[C@@H](O)[C@H](O)[C@H]5O)[C@H](O)[C@H]4O)[C@H](O)[C@H]3O)[C@H](O)[C@H]2O)[C@H]1CO [4-(α-D-maltotetraosyl)-N-methylmoranoline]
inhibition in vivo at 5 mg/kg [1]: 25%

OC[C@H]1NC[C@H](O)[C@@H](O)[C@@H]1O[C@H]1O[C@H](CO)[C@@H](O)[C@H](O)[C@H]1O [4-(α-D-glucosyl)-moranoline]
inhibition in vivo at 5 mg/kg [1]: 44%
inhibition at 200 µg/mL [2]: 15%
decomposition by α-1,4-glucanglucohydrolase (in words) ([3]; qualitative statement, FIG. 4): hardly decomposed

CN1C[C@H](O)[C@@H](O)[C@H](O[C@H]2O[C@H](CO)[C@@H](O[C@H]3O[C@H](CO)[C@@H](O[C@H]4O[C@H](CO)[C@@H](O[C@H]5O[C@H](CO)[C@@H](O[C@H]6O[C@H](CO)[C@@H](O)[C@H](O)[C@H]6O)[C@H](O)[C@H]5O)[C@H](O)[C@H]4O)[C@H](O)[C@H]3O)[C@H](O)[C@H]2O)[C@H]1CO [4-(α-D-maltopentaosyl)-N-methylmoranoline]
inhibition in vivo at 5 mg/kg [1]: 23%

CN1C[C@H](O)[C@@H](O)[C@H](O[C@H]2O[C@H](CO)[C@@H](O[C@H]3O[C@H](CO)[C@@H](O[C@H]4O[C@H](CO)[C@@H](O)[C@H](O)[C@H]4O)[C@H](O)[C@H]3O)[C@H](O)[C@H]2O)[C@H]1CO [4-(α-D-maltotriosyl)-N-methylmoranoline]
inhibition in vivo at 5 mg/kg [1]: 29%

CCN1C[C@H](O)[C@@H](O)[C@H](O[C@H]2O[C@H](CO)[C@@H](O[C@H]3O[C@H](CO)[C@@H](O)[C@H](O)[C@H]3O)[C@H](O)[C@H]2O)[C@H]1CO [4-(α-D-maltosyl)-N-ethylmoranoline]
inhibition in vivo at 5 mg/kg [1]: 35%

CCCN1C[C@H](O)[C@@H](O)[C@H](O[C@H]2O[C@H](CO)[C@@H](O)[C@H](O)[C@H]2O)[C@H]1CO [4-(α-D-glucosyl)-N-propylmoranoline]
inhibition in vivo at 5 mg/kg [1]: 24%

OC[C@H]1O[C@H](O[C@H]2[C@H](O)[C@@H](O)C(O)O[C@@H]2CO)[C@H](O)[C@@H](O)[C@@H]1O (stereo partly shown) [maltose, reference compound]
decomposition by α-1,4-glucanglucohydrolase (in words) ([3]; in 1 hour, 40° C., mixed with Dowex 50W×2 (H+)): decomposed substantially completely
decomposition by α-1,4-glucanglucohydrolase (in words) ([3]; qualitative statement, FIG. 4): promptly decomposed to glucose

OC[C@H]1NC[C@H](O)[C@@H](O)[C@@H]1O [moranoline, Moranoline]
inhibition in vivo at 5 mg/kg [1]: 19%

CN1C[C@H](O)[C@@H](O)[C@H](O[C@H]2O[C@H](CO)[C@@H](O)[C@H](O)[C@H]2O)[C@H]1CO [4-(α-D-glucosyl)-N-methylmoranoline]
inhibition in vivo at 5 mg/kg [1]: 56%
decomposition by α-1,4-glucanglucohydrolase (in words) ([3]; qualitative statement, FIG. 4): extremely small

CN1C[C@H](O)[C@@H](O)[C@H](O[C@H]2O[C@H](CO)[C@@H](O[C@H]3O[C@H](CO)[C@@H](O)[C@H](O)[C@H]3O)[C@H](O)[C@H]2O)[C@H]1CO [4-(α-D-maltosyl)-N-methylmoranoline]
inhibition in vivo at 5 mg/kg [1]: 62%

OC[C@H]1NC[C@H](O)[C@@H](O)[C@@H]1O[C@H]1O[C@H](CO)[C@@H](O[C@H]2O[C@H](CO)[C@@H](O[C@H]3O[C@H](CO)[C@@H](O)[C@H](O)[C@H]3O)[C@H](O)[C@H]2O)[C@H](O)[C@H]1O [4-(α-D-maltotriosyl)-moranoline]
inhibition in vivo at 5 mg/kg [1]: 31%
inhibition at 200 µg/mL [2]: 0%

OC[C@H]1NC[C@H](O)[C@@H](O)[C@@H]1O[C@H]1O[C@H](CO)[C@@H](O[C@H]2O[C@H](CO)[C@@H](O)[C@H](O)[C@H]2O)[C@H](O)[C@H]1O [4-(α-D-maltosyl)-moranoline]
inhibition in vivo at 5 mg/kg [1]: 35%
inhibition at 200 µg/mL [2]: 0%

CCN1C[C@H](O)[C@@H](O)[C@H](O[C@H]2O[C@H](CO)[C@@H](O)[C@H](O)[C@H]2O)[C@H]1CO [4-(α-D-glucosyl)-N-ethylmoranoline]
inhibition in vivo at 5 mg/kg [1]: 22%
inhibition at 800 µg/mL ([2]; at 800 μg/ml (printed >800 μg/ml)): 38%
